Laboratory results from ChEMBL document CHEMBL1201862, “PubChem BioAssay data set” (2004).
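Compound exposure: 48 hours, 5 concentrations, 96-well plates. Here, GI50 denotes the concentration required for 50% inhibition of growth.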 The source made the active and inactive calls. Rule as the data show it: active = GI50 up to about 1.1 µM and inactive = higher.

How the values were obtained:
Experiment in all cases: DTP human tumour cell line panel, 48 h
HT-29 = system: HT-29
RXF 393 = system: RXF 393
UACC-62 = system: UACC-62
LOX IMVI = system: LOX IMVI
SF-539 = system: SF-539
786-0 = system: 786-0
OVCAR-4 = system: OVCAR-4
SK-MEL-5 = system: SK-MEL-5
CAKI-1 = system: CAKI-1
SNB-75 = system: SNB-75
OVCAR-3 = system: OVCAR-3
ACHN = system: ACHN
RPMI-8226 = system: RPMI-8226
CCRF-CEM = system: CCRF-CEM
SK-MEL-2 = system: SK-MEL-2
HL-60 = system: HL-60
SK-OV-3 = system: SK-OV-3

Measured: GI50

COc1ccc2ccccc2c1CN1CCOCCOCCN(Cc2c(OC)ccc3ccccc23)CCOCCOCC1
inactive: HT-29 > 20.3 µM | RXF 393 > 100 µM | UACC-62 > 85.5 µM | LOX IMVI > 68.5 µM | SF-539 > 45.3 µM | 786-0 31.8 µM | OVCAR-4 > 100 µM | SK-MEL-5 > 38.9 µM | CAKI-1 > 100 µM | SNB-75 > 52.5 µM | OVCAR-3 16.7 µM | ACHN > 100 µM | RPMI-8226 10.8 µM | CCRF-CEM > 39.1 µM | SK-MEL-2 46.3 µM | HL-60 32 µM | SK-OV-3 > 100 µM

COC1=NCc2ccccc2-c2ccccc21
inactive: HT-29 > 100 µM | RXF 393 > 100 µM | UACC-62 > 100 µM | LOX IMVI > 100 µM | SF-539 > 100 µM | 786-0 > 100 µM | OVCAR-4 > 100 µM | SK-MEL-5 > 100 µM | SNB-75 > 100 µM | OVCAR-3 > 100 µM | ACHN > 100 µM | CCRF-CEM > 100 µM | SK-MEL-2 > 100 µM | HL-60 > 100 µM | SK-OV-3 > 100 µM

CN(C)NC(=O)NC12CC3CC(CC(C3)C1)C2
inactive: HT-29 > 100 µM | RXF 393 > 10 µM | UACC-62 > 100 µM | LOX IMVI > 100 µM | SF-539 > 100 µM | 786-0 > 100 µM | OVCAR-4 > 100 µM | SK-MEL-5 > 100 µM | CAKI-1 > 100 µM | SNB-75 > 100 µM | ACHN > 100 µM | RPMI-8226 > 100 µM | CCRF-CEM > 100 µM | SK-MEL-2 > 100 µM | HL-60 > 100 µM | SK-OV-3 > 100 µM

COC(=O)c1nn(C(=N)c2ccc(Cl)cc2)c2c1CCCCC2
inactive: HT-29 > 100 µM | RXF 393 > 100 µM | UACC-62 > 100 µM | LOX IMVI > 100 µM | SF-539 > 100 µM | 786-0 > 100 µM | OVCAR-4 > 100 µM | SK-MEL-5 > 100 µM | CAKI-1 > 100 µM | SNB-75 > 100 µM | ACHN > 100 µM | RPMI-8226 > 100 µM | CCRF-CEM > 100 µM | SK-MEL-2 > 100 µM | HL-60 > 100 µM | SK-OV-3 > 100 µM

O=C(/C=C/c1ccc([N+](=O)[O-])cc1)c1ccc(NCc2nc3ccccc3[nH]2)cc1
inactive: HT-29 3.44 µM | UACC-62 9.84 µM | LOX IMVI 2.43 µM | SF-539 2.84 µM | 786-0 3.13 µM | OVCAR-4 13.3 µM | SK-MEL-5 5.18 µM | CAKI-1 6.52 µM | SNB-75 3.93 µM | OVCAR-3 3.09 µM | ACHN 10.5 µM | CCRF-CEM 1.57 µM | SK-MEL-2 14.9 µM | HL-60 1.6 µM | SK-OV-3 13.6 µM

Oc1ccc2ccccc2c1/N=N/c1ccsc1
inactive: HT-29 66.8 µM | RXF 393 53.3 µM | UACC-62 > 100 µM | LOX IMVI > 100 µM | SF-539 > 100 µM | 786-0 > 100 µM | OVCAR-4 > 100 µM | SK-MEL-5 > 100 µM | CAKI-1 > 100 µM | SNB-75 > 100 µM | OVCAR-3 > 100 µM | ACHN > 100 µM | RPMI-8226 > 100 µM | CCRF-CEM 83.8 µM | SK-MEL-2 > 100 µM | HL-60 73.8 µM | SK-OV-3 > 100 µM

Cc1c(/C=N/N(C)C)oc2c1cc(O)c1ncccc12
inactive: HT-29 41.2 µM | RXF 393 5.97 µM | UACC-62 13.8 µM | LOX IMVI 4.5 µM | 786-0 6.28 µM | OVCAR-4 4.75 µM | SK-MEL-5 6.9 µM | CAKI-1 4.03 µM | SNB-75 6.92 µM | OVCAR-3 2.66 µM | ACHN 7.89 µM | RPMI-8226 5.05 µM | CCRF-CEM 1.27 µM | SK-MEL-2 12.6 µM | HL-60 2.13 µM | SK-OV-3 6.87 µM

CC(C)N(C(=O)C12C3C4C5(C(=O)O)C(C1C35I)C42C(=O)O)C(C)C (stereo unspecified)
inactive: HT-29 > 100 µM | UACC-62 > 100 µM | SF-539 > 100 µM | 786-0 > 100 µM | OVCAR-4 > 100 µM | SK-MEL-5 > 100 µM | SNB-75 29.1 µM | OVCAR-3 > 100 µM | ACHN > 100 µM | CCRF-CEM > 100 µM | HL-60 > 100 µM | SK-OV-3 > 100 µM

COc1ccc2c(c1)[n+]([O-])c(/C(C)=N/NC(=O)CC#N)c[n+]2[O-]
inactive: HT-29 > 100 µM | RXF 393 > 100 µM | UACC-62 > 100 µM | LOX IMVI > 100 µM | SF-539 > 100 µM | 786-0 > 100 µM | OVCAR-4 > 100 µM | SK-MEL-5 > 100 µM | CAKI-1 35.2 µM | SNB-75 > 100 µM | OVCAR-3 > 100 µM | ACHN > 100 µM | RPMI-8226 54.7 µM | CCRF-CEM > 100 µM | SK-MEL-2 > 100 µM | HL-60 21.1 µM | SK-OV-3 > 100 µM

O=C(n1c2ccccc2c2nnc(S)nc21)C(F)(F)F
inactive: HT-29 > 100 µM | RXF 393 33.4 µM | UACC-62 > 100 µM | LOX IMVI > 100 µM | SF-539 > 100 µM | 786-0 > 100 µM | OVCAR-4 > 100 µM | SK-MEL-5 > 100 µM | CAKI-1 > 100 µM | SNB-75 > 100 µM | OVCAR-3 > 100 µM | CCRF-CEM > 100 µM | SK-MEL-2 > 10 µM | SK-OV-3 > 100 µM

CC1(C2CCC3(C)OC3C2)CO1 (stereo unspecified)
inactive: HT-29 > 100 µM | RXF 393 > 100 µM | UACC-62 > 100 µM | LOX IMVI > 100 µM | SF-539 > 100 µM | 786-0 > 100 µM | OVCAR-4 > 100 µM | SK-MEL-5 > 100 µM | CAKI-1 > 100 µM | SNB-75 > 100 µM | OVCAR-3 > 100 µM | ACHN > 100 µM | RPMI-8226 > 100 µM | CCRF-CEM > 100 µM | SK-MEL-2 > 100 µM | HL-60 > 100 µM | SK-OV-3 > 100 µM

CCOP(=S)(OCC)Oc1ccc2c(c1)OC(=O)C1(Cl)C2(C)C2(Cl)C(=O)Oc3cc(OP(=S)(OCC)OCC)ccc3C12C (stereo unspecified)
inactive: HT-29 15.5 µM | RXF 393 11.8 µM | UACC-62 12.6 µM | LOX IMVI 19 µM | SF-539 11.1 µM | 786-0 21.1 µM | OVCAR-4 10.7 µM | SK-MEL-5 17 µM | CAKI-1 19.8 µM | SNB-75 16.1 µM | OVCAR-3 14.6 µM | ACHN 22.4 µM | RPMI-8226 11.1 µM | CCRF-CEM 16.9 µM | SK-MEL-2 20.4 µM | HL-60 14.7 µM

COC(=O)C1=C(c2cc(OC)c(OC)c(OC)c2)OC(c2ccc(OC)c(OC)c2)C1 (stereo unspecified)
inactive: HT-29 38.7 µM | RXF 393 35.9 µM | UACC-62 71.4 µM | LOX IMVI 29.3 µM | SF-539 42.9 µM | 786-0 73.3 µM | OVCAR-4 47.2 µM | SK-MEL-5 29.7 µM | CAKI-1 > 100 µM | SNB-75 66.1 µM | OVCAR-3 38.6 µM | ACHN 51.2 µM | RPMI-8226 75.2 µM | CCRF-CEM 60.1 µM | SK-MEL-2 61.2 µM | HL-60 27.4 µM | SK-OV-3 40.5 µM

Cc1ccc(-n2c3nc(=O)n(C)c(=O)c-3nc3ccccc32)c(C)c1
inactive: HT-29 3.28 µM | RXF 393 14.6 µM | UACC-62 2.33 µM | LOX IMVI 12.6 µM | SF-539 13.2 µM | 786-0 5.83 µM | OVCAR-4 12 µM | SK-MEL-5 4.73 µM | CAKI-1 27.6 µM | SNB-75 13.3 µM | OVCAR-3 2.5 µM | ACHN 3.58 µM | RPMI-8226 12.8 µM | CCRF-CEM 14.8 µM | SK-MEL-2 12.9 µM | HL-60 6.49 µM | SK-OV-3 35.1 µM

COc1cc2c(cc1OC)C1Cc3ccc(OC)c(OC)c3C[N+]1([O-])CC2 (stereo unspecified)
inactive: HT-29 > 100 µM | SF-539 > 100 µM | 786-0 > 100 µM | OVCAR-4 > 100 µM | SK-MEL-5 > 100 µM | CAKI-1 > 100 µM | SNB-75 > 100 µM | OVCAR-3 > 100 µM | ACHN > 100 µM | RPMI-8226 74.5 µM | CCRF-CEM > 100 µM | SK-MEL-2 > 100 µM

CC12C(=CC(=O)CC1SCCS(=O)(=O)O)C(C#N)=C(N)N2c1ccc(Cl)c(Cl)c1 (stereo unspecified)
inactive: HT-29 > 100 µM | RXF 393 36.8 µM | UACC-62 > 100 µM | LOX IMVI > 100 µM | SF-539 > 100 µM | 786-0 > 100 µM | OVCAR-4 > 100 µM | SK-MEL-5 > 100 µM | CAKI-1 > 100 µM | SNB-75 > 100 µM | OVCAR-3 > 100 µM | ACHN > 100 µM | RPMI-8226 > 100 µM | CCRF-CEM > 100 µM | SK-MEL-2 > 100 µM | HL-60 > 100 µM | SK-OV-3 > 100 µM

CN(C)C(=S)/N=c1\ss/c(=N\S(=O)(=O)c2ccccc2)n1N(C)C
inactive: RXF 393 9.91 µM | UACC-62 > 100 µM | SF-539 > 100 µM | 786-0 45 µM | OVCAR-4 > 100 µM | SK-MEL-5 > 100 µM | CAKI-1 > 100 µM | SNB-75 > 100 µM | OVCAR-3 > 100 µM | ACHN > 100 µM | RPMI-8226 62.7 µM | CCRF-CEM 37.9 µM | SK-MEL-2 > 100 µM | HL-60 > 100 µM | SK-OV-3 > 100 µM
